Data reported in US12227496B2 (BRISTOL-MYERS SQUIBB COMPANY, priority 2019, dated 2025).

Molecular target: T1, human FXR (Homo sapiens, UniProt Q96RI1)
T1 construct: expressed in transfected cells; host or cells: HEK293 cells stably carrying a 5xGal4-response-element firefly luciferase reporter, transiently transfected with pcDNA3.1-Gal4-FXR
T1 sequence (Q96RI1 262-486 limits assumed): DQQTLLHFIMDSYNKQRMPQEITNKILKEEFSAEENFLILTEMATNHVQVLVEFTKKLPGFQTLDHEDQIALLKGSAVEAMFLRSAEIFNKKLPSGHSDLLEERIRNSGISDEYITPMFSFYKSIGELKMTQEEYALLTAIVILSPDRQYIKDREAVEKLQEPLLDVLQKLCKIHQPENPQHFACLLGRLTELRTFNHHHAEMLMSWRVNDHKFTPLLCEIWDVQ
Test: transient human FXR/Gal4-luciferase reporter assay
Assay type: cell-based
Details: Gal4-hFXR LBD fusion, luciferase reporter in HEK293 cells; response relative to 8 μM GW-4064
Experimental: A Gal4-hFXR fusion construct reporter system was used as the primary assay to characterize compound activity. A construct including 5 copies of the Gal4 promoter response element upstream of a firefly luciferase reporter cDNA was stably expressed in HEK293 cells. This reporter cell line was maintained in Dulbecco's Modified Eagle's medium (DMEM; Gibco) supplemented with 1% penicillin-streptomycin (P/S) solution, 500 μg/mL Zeocin and 10% charcoal/dextran-treated fetal bovine serum (cs-FBS) at 37° C. in a humidified 5% CO2 atmosphere. […] The day prior to transfection, the reporter cells in culture are detached from the plate with trypsin and plated into a T75 flask at a sufficient density to achieve approximately 90% confluence the next morning. […] The mixture is further diluted with 10 mL of a solution comprised of DMEM, 10% cs-FBS, and 1% P/S immediately prior to transferring to the cells. The maintenance culture media is aspirated from the cells and the final transfection mixture is added before the cells are incubated overnight at 37° C. in a humidified 5% CO2 atmosphere. This protocol can be scaled up, and the transiently transfected cells can be cryopreserved in an assay-ready format. For compound testing, 100 nL of the compounds (serial dilutions in DMSO) are dispensed with an Echo acoustic dispenser (Labcyte) into the wells of a Corning/Costar clear bottom 384-well white plate. The transfected cells are harvested, counted, and diluted such that 10-25,000 cells in 25 μL are plated into each well of the 384-well compound assay plate. The compound-treated cells are incubated overnight at 37° C. in a humidified 5% CO2 atmosphere. The next morning 25 μL of Steady-Glo (Promega) are added to each well of the plate, the mixture is incubated for 15 min. with shaking, and luminescence is measured on an Envision (Perkin Elmer) plate reader.

SMILES	EC50
CCn1cc(-c2cccc(N(CC34CCC(c5nc(C6CC6)no5)(CC3)CC4)C(=O)C3CCOCC3)c2)oc1=O [Example 51, N-((4-(3-cyclopropyl-1,2,4-oxadiazol-5-yl)bicyclo[2.2.2]octan-1-yl)methyl)-N-(3-(3-ethyl-2-oxo-2,3-dihydrooxazol-5-yl)phenyl)tetrahydro-2H-pyran-4-carboxamide]	1190 nM
CC(C)(C)c1noc(C23CCC(CN(C(=O)C4CCC(F)(F)CC4)c4cc(F)cc(-c5nc(C6CC6)no5)c4)(CC2)CC3)n1 [Example 114, N-((4-(3-(tert-butyl)-1,2,4-oxadiazol-5-yl)bicyclo[2.2.2]octan-1-yl)methyl)-N-(3-(3-cyclopropyl-1,2,4-oxadiazol-5-yl)-5-fluorophenyl)-4,4-difluorocyclohexane-1-carboxamide]	325 nM
O=C(C1CCOCC1)N(CC12CCC(c3nc(C4CC4)no3)(CC1)CC2)c1cccc(-c2nc(C(F)F)co2)c1 [Example 36, N-((4-(3-cyclopropyl-1,2,4-oxadiazol-5-yl)bicyclo[2.2.2]octan-1-yl)methyl)-N-(3-(4-(difluoromethyl)oxazol-2-yl)phenyl)tetrahydro-2H-pyran-4-carboxamide]	525 nM
O=C(C1CCC(F)(F)CC1)N(CC12CCC(c3noc(C(F)(F)F)n3)(CC1)CC2)c1cccc(-c2cnc(C3CC3)nc2)c1 [Example 119, N-(3-(2-cyclopropylpyrimidin-5-yl)phenyl)-4,4-difluoro-N-((4-(5-(trifluoromethyl)-1,2,4-oxadiazol-3-yl)bicyclo[2.2.2]octan-1-yl)methyl)cyclohexane-1-carboxamide]	290 nM
O=C(C1CCC(F)(F)CC1)N(CC12CCC(c3nc(CC4CC4)no3)(CC1)CC2)c1cccc(-c2nc(CC3CC3)no2)c1 [Example 42, N-((4-(3-(cyclopropylmethyl)-1,2,4-oxadiazol-5-yl)bicyclo[2.2.2]octan-1-yl)methyl)-N-(3-(3-(cyclopropylmethyl)-1,2,4-oxadiazol-5-yl)phenyl)-4,4-difluorocyclohexane-1-carboxamide]	536 nM
CC(C)(C)OC(=O)N1CCC(C(=O)N(CC23CCC(c4nc(C5CC5)no4)(CC2)CC3)c2cccc(-c3nc(C(F)F)co3)c2)CC1 [Example 38, tert-butyl 4-(((4-(3-cyclopropyl-1,2,4-oxadiazol-5-yl)bicyclo[2.2.2]octan-1-yl)methyl)(3-(4-(difluoromethyl)oxazol-2-yl)phenyl)carbamoyl) piperidine-1-carboxylate]	4390 nM
Cn1nc(C2CC2)cc1C12CCC(CN(C(=O)C3CCS(=O)(=O)CC3)c3cccc(-c4ccc(S(C)(=O)=O)cc4)c3)(CC1)CC2 [Example 135, N-((4-(3-cyclopropyl-1-methyl-1H-pyrazol-5-yl)bicyclo[2.2.2]octan-1-yl)methyl)-N-(4′-(methylsulfonyl)-[1,1′-biphenyl]-3-yl)tetrahydro-2H-thiopyran-4-carboxamide 1,1-dioxide]	4000 nM
COc1nccc(-c2cccc(N(CC34CCC(c5nc(C6CC6)no5)(CC3)CC4)C(=O)C3CCOCC3)c2)n1 [Example 84, N-((4-(3-cyclopropyl-1,2,4-oxadiazol-5-yl)bicyclo[2.2.2]octan-1-yl)methyl)-N-(3-(2-methoxypyrimidin-4-yl)phenyl)tetrahydro-2H-pyran-4-carboxamide]	1770 nM
CC(C)(C)c1noc(C23CCC(CN(C(=O)C4CCOCC4)c4cccc(-c5nc(C6CC6)no5)c4)(CC2)CC3)n1 [Example 69, N-((4-(3-(tert-butyl)-1,2,4-oxadiazol-5-yl)bicyclo[2.2.2]octan-1-yl)methyl)-N-(3-(3-cyclopropyl-1,2,4-oxadiazol-5-yl)phenyl)tetrahydro-2H-pyran-4-carboxamide]	162 nM
O=C(C1CCC(F)(F)CC1)N(CC12CCC(c3noc(C4(C(F)(F)F)CC4)n3)(CC1)CC2)c1cccc(-c2cc(C3CC3)no2)c1 [Example 149, N-(3-(3-cyclopropylisoxazol-5-yl)phenyl)-4,4-difluoro-N-((4-(5-(1-(trifluoromethyl)cyclopropyl)-1,2,4-oxadiazol-3-yl)bicyclo[2.2.2]octan-1-yl)methyl)cyclohexane-1-carboxamide]	78 nM
CC(F)(F)c1nc(C23CCC(CN(C(=O)C4CCOCC4)c4cccc(-c5cc(C6CC6)on5)c4)(CC2)CC3)no1 [Example 156, N-(3-(5-cyclopropylisoxazol-3-yl)phenyl)-N-((4-(5-(1,1-difluoroethyl)-1,2,4-oxadiazol-3-yl)bicyclo[2.2.2]octan-1-yl)methyl)tetrahydro-2H-pyran-4-carboxamide]	44 nM
CCOc1nnc(-c2cccc(N(CC34CCC(c5nc(C6CC6)no5)(CC3)CC4)C(=O)C3CCC(F)(F)CC3)c2)o1 [Example 39, N-((4-(3-cyclopropyl-1,2,4-oxadiazol-5-yl)bicyclo[2.2.2]octan-1-yl)methyl)-N-(3-(5-ethoxy-1,3,4-oxadiazol-2-yl)phenyl)-4,4-difluorocyclohexane-1-carboxamide]	130 nM
COc1cccc(-c2cccc(N(CC34CCC(c5nc(C)no5)(CC3)CC4)C(=O)C3CCCCC3)c2)c1 [Example 72, N-(3′-methoxy-[1,1′-biphenyl]-3-yl)-N-((4-(3-methyl-1,2,4-oxadiazol-5-yl)bicyclo[2.2.2]octan-1-yl)methyl)cyclohexanecarboxamide]	307 nM
COc1cccc(-c2cccc(N(C(=O)C3CCCCC3)C(C)C34CCC(c5nc(C)no5)(CC3)CC4)c2)c1 (single isomer, unassigned) [Example 95, N-(3′-methoxy-[1,1′-biphenyl]-3-yl)-N-(1-(4-(3-methyl-1,2,4-oxadiazol-5-yl)bicyclo[2.2.2]octan-1-yl)ethyl)cyclohexanecarboxamide]	6670 nM
O=C(C1CCC(F)(F)CC1)N(CC12CCC(c3nc(C4CC4)no3)(CC1)CC2)c1cccc(-c2nc3cc(F)ccc3o2)c1 [Example 93, N-((4-(3-cyclopropyl-1,2,4-oxadiazol-5-yl)bicyclo[2.2.2]octan-1-yl)methyl)-4,4-difluoro-N-(3-(5-fluorobenzo[d]oxazol-2-yl)phenyl)cyclohexane-1-carboxamide]	799 nM
COC(=O)c1noc(-c2cccc(N(CC34CCC(c5nc(C6CC6)no5)(CC3)CC4)C(=O)C3CCCCC3)c2)n1 [Example 2, Methyl 5-(3-(N-((4-(3-cyclopropyl-1,2,4-oxadiazol-5-yl)bicyclo[2.2.2]octan-1-yl)methyl)cyclohexanecarboxamido)phenyl)-1,2,4-oxadiazole-3-carboxylate]	211 nM
CCOC(=O)c1nc(-c2cccc(N(CC34CCC(c5nc(C6CC6)no5)(CC3)CC4)C(=O)C3CCCCC3)c2)cs1 [Example 31, Ethyl 4-(3-(N-((4-(3-cyclopropyl-1,2,4-oxadiazol-5-yl)bicyclo[2.2.2]octan-1-yl)methyl)cyclohexanecarboxamido)phenyl)thiazole-2-carboxylate]	1200 nM
COc1cc(-c2cccc(N(CC34CCC(C(=O)NC5CC5)(CC3)CC4)C(=O)C3CCCCC3)c2)ccn1 [Example 98, N-cyclopropyl-4-((N-(3-(2-methoxypyridin-4-yl)phenyl)cyclohexanecarboxamido)methyl)bicyclo[2.2.2]octane-1-carboxamide]	399 nM
O=C(C1CCC(F)(F)CC1)N(CC12CCC(c3nc(C4CC4)no3)(CC1)CC2)c1cccc(-c2nc(CC3CC3)no2)c1 [Example 43, N-((4-(3-cyclopropyl-1,2,4-oxadiazol-5-yl)bicyclo[2.2.2]octan-1-yl)methyl)-N-(3-(3-(cyclopropylmethyl)-1,2,4-oxadiazol-5-yl)phenyl)-4,4-difluorocyclohexane-1-carboxamide]	379 nM
CC(C)(C)c1noc(C23CCC(CN(C(=O)C4CCS(=O)(=O)CC4)c4cccc(-c5cc(C6CC6)on5)c4)(CC2)CC3)n1 [Example 160, N-((4-(3-(tert-butyl)-1,2,4-oxadiazol-5-yl)bicyclo[2.2.2]octan-1-yl)methyl)-N-(3-(5-cyclopropylisoxazol-3-yl)phenyl)tetrahydro-2H-thiopyran-4-carboxamide 1,1-dioxide]	701 nM
O=C(C1CCCCC1)N(CC12CCC(c3nc(C4CC4)no3)(CC1)CC2)c1cccc(-c2nc(C(F)F)co2)c1 [Example 37, N-((4-(3-cyclopropyl-1,2,4-oxadiazol-5-yl)bicyclo[2.2.2]octan-1-yl)methyl)-N-(3-(4-(difluoromethyl)oxazol-2-yl)phenyl)cyclohexanecarboxamide]	166 nM
